According to ChEMBL document CHEMBL1201862, “PubChem BioAssay data set” (2004):
Several values for one entry are separate records, joined by “and”; a condition that tells them apart may be missing. Equal values may be shown once. Activity calls are given as the source filed them.

Assays:
[1] = Shn3 3'UTR reporter inhibitors, dose response, cell-based, Clone20 osteoblasts, firefly luciferase, cherry-picked (AID 624132); type: functional;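 also: firefly luciferase luminescence from reporter carrying the Shn3 3'UTR in osteoblasts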
[2] = HepG2 cell cytotoxicity, dose response, cytotoxicity control for Shn3 inhibitor project, CellTiter-Glo, cherry-picked (AID 624134); type: functional, cell-based
[3] = control 3'UTR Renilla luciferase suppression, dose response, counter-screen for Shn3 inhibitor project, cell-based, Clone20-Shn3RL, cherry-picked (AID 624133); type: functional
[4] = target: T1, Heat shock factor protein 1 (Mus musculus, UniProt P38532); experiment: HSF1 potentiators in luciferase reporter cells, confirmation, cell-based, NIH3T3, luminescence, dose retest (AID 435004); type: functional;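 also: stress induced by proteasome inhibitor MG132 added 30 min after compound; luciferase reporter driven by HSF1 response element in NIH3T3 cells; actives raise luminescence as potentiators of the MG132 stress response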
T1 sequence (P38532 whole entry): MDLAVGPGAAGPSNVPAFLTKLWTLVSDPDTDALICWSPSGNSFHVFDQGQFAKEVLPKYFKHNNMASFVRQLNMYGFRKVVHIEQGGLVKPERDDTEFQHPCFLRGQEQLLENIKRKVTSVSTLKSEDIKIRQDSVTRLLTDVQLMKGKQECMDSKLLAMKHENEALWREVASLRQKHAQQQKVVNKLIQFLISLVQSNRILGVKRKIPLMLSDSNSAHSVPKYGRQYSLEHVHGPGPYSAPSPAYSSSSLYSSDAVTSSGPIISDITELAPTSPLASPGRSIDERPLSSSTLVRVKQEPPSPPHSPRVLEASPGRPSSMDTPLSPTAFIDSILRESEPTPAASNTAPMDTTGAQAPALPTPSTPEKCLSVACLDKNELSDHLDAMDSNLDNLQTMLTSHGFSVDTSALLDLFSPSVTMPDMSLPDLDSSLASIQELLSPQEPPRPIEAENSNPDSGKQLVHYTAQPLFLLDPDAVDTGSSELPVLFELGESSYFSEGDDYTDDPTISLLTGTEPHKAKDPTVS

[5] = target: T2, Ubiquitin-conjugating enzyme E2 N (Homo sapiens, UniProt P61088); type: functional;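 also: Dose-response confirmation in a TR-FRET assay detecting UBC13-driven polyubiquitin chain formation, inhibition measured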
T2 sequence (P61088 whole entry): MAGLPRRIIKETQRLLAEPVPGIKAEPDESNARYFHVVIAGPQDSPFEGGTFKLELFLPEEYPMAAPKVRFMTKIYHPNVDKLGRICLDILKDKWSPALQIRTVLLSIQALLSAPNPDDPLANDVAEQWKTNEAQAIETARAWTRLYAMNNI

[6] = Luminescence Cell-Based Dose Response HTS to Identify Activators of Luciferase Translation or Activity in H4 […] Cells. [Related pubchem assays: 1829 (Project Summary), 1814 (Primary HTS)]; type: functional
H4 = experiment: Luminescence Cell-Based Dose Response HTS to Identify Activators of 5'UTR Stem-Loop Driven Prion Protein mRNA Translation in H4 Neuroglioblastoma Cells. [Related pubchem assays: 1829 (Project Summary), 1814 (Primary HTS)]; type: functional; settings: Homo sapiens
Cytochrome P450 3A4 = Cytochrome P450 3A4 (Homo sapiens, UniProt P08684);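 also: CYP3A4 tested as one member of a cytochrome P450 panel screen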
Chain of Cytochrome P450 3A4 (P08684 whole entry): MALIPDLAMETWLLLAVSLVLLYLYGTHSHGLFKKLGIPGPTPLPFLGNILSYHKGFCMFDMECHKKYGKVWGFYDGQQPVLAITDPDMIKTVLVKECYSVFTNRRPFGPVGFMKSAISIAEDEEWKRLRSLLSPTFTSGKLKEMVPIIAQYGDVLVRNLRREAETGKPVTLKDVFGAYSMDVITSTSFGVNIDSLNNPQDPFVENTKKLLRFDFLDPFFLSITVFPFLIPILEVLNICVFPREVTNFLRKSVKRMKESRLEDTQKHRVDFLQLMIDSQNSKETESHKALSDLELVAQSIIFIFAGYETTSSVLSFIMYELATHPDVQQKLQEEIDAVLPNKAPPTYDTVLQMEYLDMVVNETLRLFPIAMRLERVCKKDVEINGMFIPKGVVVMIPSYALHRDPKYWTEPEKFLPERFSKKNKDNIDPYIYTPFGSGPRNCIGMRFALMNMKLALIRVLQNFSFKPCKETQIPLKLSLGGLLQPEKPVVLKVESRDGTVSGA

[7] = target: T3, Corticotropin-releasing factor receptor 2/Corticotropin-releasing factor-binding protein (Homo sapiens, UniProt P24387+Q13324); experiment: Dose Response confirmation of uHTS hits for small molecule antagonists of the CRF-binding protein and CRF-R2 receptor complex.; type: functional; settings: read-out: IC50_Mean
T3 sequence (Q13324 whole entry): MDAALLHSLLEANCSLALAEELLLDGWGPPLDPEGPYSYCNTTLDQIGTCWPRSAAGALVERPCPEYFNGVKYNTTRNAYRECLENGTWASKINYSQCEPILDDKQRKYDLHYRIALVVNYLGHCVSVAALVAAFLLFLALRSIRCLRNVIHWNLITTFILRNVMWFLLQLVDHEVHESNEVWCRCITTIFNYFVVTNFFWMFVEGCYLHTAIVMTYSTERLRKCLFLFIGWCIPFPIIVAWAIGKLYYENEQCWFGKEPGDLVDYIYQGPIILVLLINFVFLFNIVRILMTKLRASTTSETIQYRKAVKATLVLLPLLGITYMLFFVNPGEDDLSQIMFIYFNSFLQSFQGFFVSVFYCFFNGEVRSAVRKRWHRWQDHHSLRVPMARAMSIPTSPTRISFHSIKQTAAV
T3 sequence (P24387 whole entry): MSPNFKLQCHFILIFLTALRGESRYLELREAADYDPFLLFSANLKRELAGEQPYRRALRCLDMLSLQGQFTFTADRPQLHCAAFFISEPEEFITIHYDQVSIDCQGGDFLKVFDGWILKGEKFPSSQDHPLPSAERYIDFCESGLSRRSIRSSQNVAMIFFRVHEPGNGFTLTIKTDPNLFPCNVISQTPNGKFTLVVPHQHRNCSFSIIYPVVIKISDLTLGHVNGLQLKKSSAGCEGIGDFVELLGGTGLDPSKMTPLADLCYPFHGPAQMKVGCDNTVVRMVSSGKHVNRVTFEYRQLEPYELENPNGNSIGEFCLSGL

[8] = target: T3, Corticotropin-releasing factor receptor 2/Corticotropin-releasing factor-binding protein; experiment: activators of CRF receptor 2 with binding protein – uHTS hits, confirmation (AID 602473); type: functional; settings: read-out: EC50_Mean
INS1 = experiment: beta cell apoptosis inhibitors, cytokine rescue, dose response, luminescence, retest (AID 449756); type: functional, cell-based; settings: Rattus norvegicus;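 also: cell death triggered by IL-1 beta plus TNF-alpha plus IFN-gamma mixture; protective hits raise ATP signal compared with cytokine alone wells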
[9] = NIH-3T3 fibroblast cytotoxicity, dose response, cytotoxicity control, cell-based, fluorescence, Alamar Blue, secondary assay (AID 2327); type: functional;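 also: NIH-3T3 mouse fibroblasts cultured with fluconazole at 8 µg/mL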
[10] = C. albicans growth with fluconazole, confirmation, fluorescence, retest (AID 2467); type: functional, cell-based
Paired box protein Pax-8 = Paired box protein Pax-8 (Homo sapiens, UniProt Q06710); experiment: inhibitors of PAX8-driven TPO luciferase reporter, dose response, RMG-I cells, cherry-pick (AID 687027); type: functional, cell-based;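 also: luciferase reporter driven by Pax8 target thyroperoxidase promoter measured by SteadyGlo luminescence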
Chain of Paired box protein Pax-8 (Q06710 whole entry): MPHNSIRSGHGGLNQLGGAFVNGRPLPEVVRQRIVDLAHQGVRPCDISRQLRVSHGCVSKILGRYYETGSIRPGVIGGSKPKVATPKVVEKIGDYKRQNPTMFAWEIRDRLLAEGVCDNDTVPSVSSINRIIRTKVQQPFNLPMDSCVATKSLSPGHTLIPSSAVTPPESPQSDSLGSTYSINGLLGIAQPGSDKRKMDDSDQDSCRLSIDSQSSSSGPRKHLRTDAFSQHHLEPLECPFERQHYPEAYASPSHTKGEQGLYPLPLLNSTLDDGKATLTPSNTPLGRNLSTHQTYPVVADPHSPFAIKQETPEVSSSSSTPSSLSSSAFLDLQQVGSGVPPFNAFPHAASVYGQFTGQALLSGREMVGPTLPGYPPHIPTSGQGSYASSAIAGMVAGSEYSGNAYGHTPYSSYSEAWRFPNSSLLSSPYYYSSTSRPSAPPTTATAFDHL

Cytochrome P450 2D6 = Cytochrome P450 2D6 (Homo sapiens, UniProt P10635);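 also: CYP2D6 member of a cytochrome P450 panel assay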
Chain of Cytochrome P450 2D6 (P10635 whole entry): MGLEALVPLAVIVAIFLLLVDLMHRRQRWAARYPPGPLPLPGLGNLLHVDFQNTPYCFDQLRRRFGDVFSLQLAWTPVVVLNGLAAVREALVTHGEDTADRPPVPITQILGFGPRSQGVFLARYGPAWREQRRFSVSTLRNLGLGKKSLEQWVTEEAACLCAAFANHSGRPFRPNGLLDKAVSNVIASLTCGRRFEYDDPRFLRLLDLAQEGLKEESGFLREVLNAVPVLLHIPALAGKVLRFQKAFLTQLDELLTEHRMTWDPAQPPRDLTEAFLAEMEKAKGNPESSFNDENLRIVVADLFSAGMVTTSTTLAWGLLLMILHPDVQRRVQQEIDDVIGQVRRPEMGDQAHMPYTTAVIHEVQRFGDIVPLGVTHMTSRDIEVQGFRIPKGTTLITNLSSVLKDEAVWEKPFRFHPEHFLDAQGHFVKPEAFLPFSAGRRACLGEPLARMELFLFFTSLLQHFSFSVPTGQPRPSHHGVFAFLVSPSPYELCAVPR

Compound: CCC(=O)NC(C)c1cc(Cl)c2cccnc2c1O (centres undefined)
- AC50 [1]: 5.19 µM (active)
- AC50 [2]: 9.85 µM (active)
- AC50 [3]: 1.62 µM (active)

Compound: O=C(CC12CCC(CC1)C2)NCc1ccc2c(c1)OCO2
- EC50 [4]: > 260 µM (inactive)

Compound: COC(=O)C1=C(C)N(Cc2ccccc2)C(NCCc2ccccn2)=N[C@H]1c1cccc(C(F)(F)F)c1
- IC50 [5]: > 20 µM (inactive)

Compound: COc1ccc(/C=C2\OC(=O)c3c(OC)cccc32)cc1OC
- EC50 [6]: 7.38 µM (active)
- EC50 (H4): 22.4 µM (active)
- AC50 (Cytochrome P450 3A4): 10 µM (inconclusive)

Compound: CCC(=O)Nc1c(S(=O)(=O)c2ccccc2)c2nc3ccccc3nc2n1C(C)c1ccccc1 (centres undefined)
- EC50 [4]: > 260 µM (inactive)

Compound: Cc1ccc2c(c1)c(C)c(C)n2CC(O)Cn1nc(C)c(Br)c1C (centres undefined)
- EC50 [4]: > 260 µM (inactive)

Compound: CN(NC(=O)Nc1ccccc1)c1cnn(C)c(=O)c1Cl
- IC50 [7]: > 47.1 µM (inactive)
- EC50 [8]: > 53 µM (inactive)

Compound: Cc1cccc(N(C(=O)c2snc(C(N)=O)c2N)C(C(=O)NCC2CCCO2)c2c[nH]c3ccccc23)c1 (centres undefined)
- IC50 [5]: > 20 µM (inactive)

Compound: O=S(=O)(c1ccccc1C(F)(F)F)N1CCN(c2ncnc3sccc23)CC1
- AC50 [1]: 3.44 µM (active)
- AC50 [2]: 8.89 µM (active)
- AC50 [3]: 9.4 µM (active)

Compound: Cc1ccc(NC(=O)c2oc3ccccc3c2COC(C)C)cc1S(=O)(=O)N1CCOCC1
- AC50 [1]: 14.4 µM (active)
- AC50 [2]: > 70 µM (inactive)

Compound: C#CCOCCOCCOCCNc1nc(N2CCN(C(=O)C([C@@H](C)O)n3cc([C@@H](N)CCCCN)nn3)CC2)nc(N2CCN(C(=O)C([C@@H](C)O)n3cc([C@@H](N)CCCCN)nn3)CC2)n1 (some centres undefined)
- IC50 [5]: > 20 µM (inactive)

Compound: Cc1ccc(NC(=O)c2sc(N)nc2-c2ccc([N+](=O)[O-])cc2)c(C)c1
- EC50 [4]: > 260 µM (inactive)

Compound: Oc1ccc(Cl)cc1Nc1nc(NCC2CCCO2)c2ccccc2n1 (centres undefined)
- IC50 [5]: > 20 µM (inactive)

Compound: Cc1cc(C(=O)c2ccc3ccccc3c2)c(C)o1
- AC50 (INS1): > 260 µM (inactive)

Compound: CCOC(=O)C1=NN(c2ccccc2)C2=NC(C)=C(C(=O)OC)C(c3cccs3)N12 (centres undefined)
- IC50 [7]: > 47.1 µM (inactive)
- EC50 [8]: > 53 µM (inactive)

Compound: O=C(N/N=C/c1ccc[nH]1)c1cc2ccccc2cc1O
- EC50 [9]: > 160 µM (inactive)
- EC50 [10]: > 38 µM (not active)

Compound: CCN(CC)Cc1c(C)nc2ccc(NC(C)=O)cc2c1O
- IC50 [7]: > 47.1 µM (inactive)
- EC50 [8]: > 53 µM (inactive)

Compound: CC(=O)c1cc(C#N)c(Oc2ccc(Cl)cc2Cl)nc1C
- IC50 [7]: > 47.1 µM (inactive)
- EC50 [8]: > 53 µM (inactive)

Compound: O=C(C[C@H]1C[C@@H]2c3cc(NS(=O)(=O)c4ccccc4)ccc3O[C@@H]2[C@H](CO)O1)N1CCOCC1
- IC50 [7]: > 47.1 µM (inactive)
- EC50 [8]: > 53 µM (inactive)

Compound: CN1c2ccc(C#Cc3cccnc3)cc2[C@@H]2[C@@H](CCN2C(=O)Cc2cccnc2)[C@@H]1CO
- AC50 (Paired box protein Pax-8): 57.2 µM (active)

Compound: O=C(Nc1ccc(Cl)c(Cl)c1)N[C@@H]1CC[C@H](CCn2cc(C3CCCCC3)nn2)O[C@H]1CO
- AC50 (Paired box protein Pax-8): 19.7 µM (active)

Compound: Cc1nn(C)cc1/C=N\NC(=O)c1ccc2c(c1)c(C)c(C)n2Cc1ccccc1
- EC50 [4]: 67.7 µM (active)

Compound: O=C(N/N=C1\CC(c2ccccc2)Oc2ccccc21)c1ccc(O)cc1 (centres undefined)
- EC50 [4]: > 260 µM (inactive)

Compound: COc1ccc(/C=N/NC(=O)c2ccc(-c3ccccc3)cc2)cc1O
- EC50 [9]: > 150 µM (inactive)
- EC50 [10]: 0.036 µM (active)

Compound: O=C1NCC2(CCN(CCc3ccccc3)CC2)O1 [FENSPIRIDE]
- AC50 (Cytochrome P450 2D6): 12.6 µM (inconclusive) and 39.8 µM (inconclusive)
